From patent US8349846B2, “Fused pyrimidine derivatives as TRPV3 modulators” (Glenmark Pharmaceuticals, S.A., priority 2008, dated 2013) come the findings set out here.

This assay concerns the target T1, Human TRPV3 (Homo sapiens, UniProt Q8NET8).
T1 construct: expressed in transfected cells; host or cells: CHO cells (selected with G-418)
T1 sequence (Q8NET8 1-790): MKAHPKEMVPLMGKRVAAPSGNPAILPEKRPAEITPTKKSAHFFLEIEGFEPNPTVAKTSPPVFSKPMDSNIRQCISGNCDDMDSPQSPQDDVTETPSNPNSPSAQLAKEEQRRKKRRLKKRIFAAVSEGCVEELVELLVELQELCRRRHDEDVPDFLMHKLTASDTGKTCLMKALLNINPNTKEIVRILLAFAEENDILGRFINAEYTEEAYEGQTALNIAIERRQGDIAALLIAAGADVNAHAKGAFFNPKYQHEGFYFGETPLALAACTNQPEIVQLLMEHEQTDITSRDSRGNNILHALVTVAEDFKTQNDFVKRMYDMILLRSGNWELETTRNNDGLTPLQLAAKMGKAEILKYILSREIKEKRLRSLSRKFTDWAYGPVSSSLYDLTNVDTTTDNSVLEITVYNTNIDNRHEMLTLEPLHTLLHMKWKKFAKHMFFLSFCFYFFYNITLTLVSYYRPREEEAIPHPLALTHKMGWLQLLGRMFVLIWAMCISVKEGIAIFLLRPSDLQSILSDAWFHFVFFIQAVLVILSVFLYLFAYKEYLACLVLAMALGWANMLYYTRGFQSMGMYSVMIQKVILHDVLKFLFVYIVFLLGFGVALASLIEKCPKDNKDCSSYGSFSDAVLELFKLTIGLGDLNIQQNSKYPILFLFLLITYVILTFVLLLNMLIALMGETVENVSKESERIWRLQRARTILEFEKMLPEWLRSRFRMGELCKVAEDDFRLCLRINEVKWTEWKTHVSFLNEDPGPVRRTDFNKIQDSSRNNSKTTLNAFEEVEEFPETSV
The experiment in a line: Screening for TRPV3 antagonist using the 45Calcium uptake assay (inhibition of 2-APB induced cellular uptake of radioactive calcium). Type of assay: cell-based. The note with it: Human TRPV3 expressing CHO cells, 2-APB 500 μM; for inhibition at 1 µM / inhibition at 10 µM: CHO; for inhibition at 1 µM: read-out: Percentage inhibition at 1.0 μM; for inhibition at 10 µM: 10.0 μM test compound, read-out: Percentage inhibition at 10.0 μM. The source says:
The illustrative examples of the present invention are screened for TRPV3 activity according to a modified procedure described in Tóth, A., Kedei, N., Wang, Y. and Blumberg, P. M. Life Sciences (2003), 73, 487-498. The screening of the compounds can be carried out by other methods and procedures known to a person skilled in the art. Such screening methods may be found in (a) Hu, H.-Z. et al. J. Biol. Chem. (2004), 279, 35741-35747; (b) Smith, G. D. et al. Nature (2002), 418, 186-190; (c) Peier, A. M. et al. Science (2002), 296, 2046-2049.
Screening for TRPV3 Antagonist Using the ^45Calcium Uptake Assay:
The inhibition of TRPV3 receptor activation was followed as inhibition of 2-aminoethxydiphenylborate (2-APB) induced cellular uptake of radioactive calcium. Test compounds were dissolved in dimethyl sulfoxide (DMSO) to prepare 20 mM stock solution and then diluted using plain medium with DMEM/F-12 containing 1.8 mM CaCl2 to get desired concentration. Final concentration of DMSO in the reaction was 0.5% (v/v). Human TRPV3 expressing CHO cells were grown in DMEM/F-12 medium with 10% FBS, 1% penicillin-streptomycin solution, 400 μg/ml of G-418. Cells were seeded 24 h prior to the assay in 96 well plates so as to get ˜50,000 cells per well on the day of experiment. Cells were treated with test compounds for 10 minutes followed by addition of 2-APB at a final concentration of 500 μM and 5 μCi/ml ^45Ca^+2 for 4 minutes. Cells were washed and lysed using buffer containing 1% Triton X-100, 0.1% deoxycholate and 0.1% SDS. Radioactivity in the lysate was measured in Packardt Top count after addition of liquid scintillant. Concentration response curves were plotted as a % of maximal response obtained in the absence of test antagonist. IC50 value was calculated from concentration response curve by nonlinear regression analysis using GraphPad PRISM software.
Percentage inhibition at concentrations of 1.0 μM and 10.0 μM are given in the table along with IC50 (nM) values for selected examples.

Structures can show the parent of a compound that is named as a salt. Bounds are passed on as bounds.

Usually inhibition stands for how much of the control response was suppressed. By IC50 is commonly meant the concentration that inhibits the measured activity by half.

On to `O=c1c(-c2ccccc2)c(/C=C/c2ccc(Cl)cc2)nc2ccccn12` [Example 1, 2-[(E)-2-(4-Chlorophenyl)vinyl]-3-phenyl-4H-pyrido[1,2-a]pyrimidin-4-one], for which the inhibition at 10 µM came out at 19.4%. Besides, the inhibition at 1 µM (1.0 μM test compound) is 0.5%.

As for `O=c1c(-c2ccc(C(F)(F)F)cc2)c(/C=C/c2cccnc2)nc2ccccn12` [Example 2, 2-{(E)-2-(Pyridin-3-yl)vinyl}-3-(4-trifluoromethyl)phenyl-4H-pyrido[1,2-a]pyrimidin-4-one], the inhibition at 10 µM is 11.2%. Also, the inhibition at 1 µM (1.0 μM test compound) was 5.7%.

As to `O=c1c(-c2ccc(C(F)(F)F)cc2)c(/C=C/c2cccs2)nc2ccccn12` [Example 3, 2-[(E)-2-(2-Thienyl)vinyl]-3-[4-(trifluoromethyl)phenyl]-4H-pyrido[1,2-a]pyrimidin-4-one], the inhibition at 10 µM stood at 77.9% and the half-maximal inhibitory concentration (IC50) fell in the range of 1000 to 2500 nM. Also, under “1.0 μM test compound”, the inhibition at 1 µM was determined as 14.4%.

Take `O=c1c(-c2ccc(C(F)(F)F)cc2)c(/C=C/c2cccc3c2OCO3)nc2ccccn12` [Example 4, 2-[(E)-2-(1,3-Benzodioxol-4-yl)vinyl]-3-[4-(trifluoromethyl)phenyl]-4H-pyrido[1,2-a]pyrimidin-4-one]: the inhibition at 10 µM amounted to 74%. In addition, the inhibition at 1 µM (1.0 μM test compound) amounted to 25.3%.

Take `COc1cccc(/C=C/c2nc3ccccn3c(=O)c2-c2ccc(C#N)cc2)c1OC1CCCC1` [Example 5, 4-{2-[(E)-2-[2-(Cyclopentyloxy)-3-methoxyphenyl)vinyl]-4-oxo-4H-pyrido[1,2-a]pyrimidin-3-yl}benzonitrile]: the inhibition at 10 µM stood at 76.2%. In addition, the “Percentage inhibition at 1.0 μM” value (1.0 μM test compound) amounted to 41.6%.

In the case of `CCCOc1c(/C=C/c2nc3ccccn3c(=O)c2-c2ccc(C(F)(F)F)cc2)cccc1OC` [Example 6], the inhibition at 10 µM was determined as 67.5%. Where the note is “1.0 μM test compound”, the inhibition at 1 µM came to 71.5%.

In the case of `CCCOc1c(/C=C/c2nc3ccccn3c(=O)c2-c2ccc(C#N)cc2)cccc1OC` [Example 7], the inhibition at 10 µM stood at 98.9%. Besides, for the setting “1.0 μM test compound”, the inhibition at 1 µM was 77.9%.

Regarding `CCCCOc1c(/C=C/c2nc3ccccn3c(=O)c2-c2ccc(C(F)(F)F)cc2)cccc1OC` [Example 8], the inhibition at 10 µM came to 89.7%. Further, the inhibition at 1 µM (1.0 μM test compound) worked out at 76.3%.

In the case of `CCCCOc1c(/C=C/c2nc3ccccn3c(=O)c2-c2ccc(OC(F)(F)F)cc2)cccc1OC` [Example 9, 2-[(E)-2-[2-Butoxy-3-methoxyphenyl)vinyl]-3-[4-(trifluoromethoxy)phenyl]-4H-pyrido-[1,2-a]pyrimidin-4-one], the inhibition at 10 µM is 89% and the IC50 lay within 500 to 1000 nM. In addition, the inhibition at 1 µM (1.0 μM test compound) stood at 74.6%.

Turning to `CCCCOc1c(/C=C/c2nc3ccccn3c(=O)c2-c2ccc(C#N)cc2)cccc1OC` [Example 10], the inhibition at 10 µM amounted to 100%. Further, the inhibition at 1 µM (1.0 μM test compound) amounted to 82.8%.

Consider `CCCCCOc1c(/C=C/c2nc3ccccn3c(=O)c2-c2ccc(C(F)(F)F)cc2)cccc1OC` [Example 11], for which the inhibition at 10 µM amounted to 86.5%. Further, under “1.0 μM test compound”, the inhibition at 1 µM is 69%.

On to `CCCCCOc1c(/C=C/c2nc3ccccn3c(=O)c2-c2ccc(C#N)cc2)cccc1OC` [Example 12, 4-{2-[(E)-2-[3-Methoxy-2-pentyloxyphenyl)vinyl]-4-oxo-4H-pyrido[1,2-a]pyrimidin-3-yl}benzonitrile], for which the inhibition at 10 µM came to 96.5% and the IC50 is under 500 nM. The inhibition at 1 µM (1.0 μM test compound) was determined as 87.9%.

Regarding `CCCCCCOc1c(/C=C/c2nc3ccccn3c(=O)c2-c2ccc(C(F)(F)F)cc2)cccc1OC` [Example 13], the inhibition at 10 µM is 77.3%. The inhibition at 1 µM (1.0 μM test compound) was 58%.

Regarding `CCCCCCOc1c(/C=C/c2nc3ccccn3c(=O)c2-c2ccc(C#N)cc2)cccc1OC` [Example 14], the inhibition at 10 µM amounted to 92.3% and the IC50 is under 500 nM. Besides, under “1.0 μM test compound”, the inhibition at 1 µM was determined as 85.1%.

Turning to `COc1cccc(/C=C/c2nc3ccccn3c(=O)c2-c2ccc(C(F)(F)F)cc2)c1OCCN(C)C` [Example 15, 2-[(E)-2-{2-[2-(Dimethylamino)ethoxy]-3-methoxyphenyl}vinyl]-3-(4-trifluoromethylphenyl)-4H-pyrido[1,2-a]pyrimidin-4-one hydrochloride], the inhibition at 10 µM was 31.7%. Where the note is “1.0 μM test compound”, the inhibition at 1 µM came to 0%.

With `COc1cccc(/C=C/c2nc3ccccn3c(=O)c2-c2ccccc2)c1OCC1CC1` [Example 16, 2-{(E)-2-[2-(Cyclopropylmethoxy)-3-methoxyphenyl]vinyl}-3-phenyl-4H-pyrido[1,2-a]-pyrimidin-4-one], the inhibition at 10 µM stood at 79.8%. Where the note is “1.0 μM test compound”, the inhibition at 1 µM came to 33.8%.

On to `COc1cccc(/C=C/c2nc3ccccn3c(=O)c2-c2ccc(C(F)(F)F)cc2)c1OCC1CC1` [Example 17], for which the inhibition at 10 µM is 95.3% and the IC50 was under 500 nM. Further, the inhibition at 1 µM (1.0 μM test compound) was 83.3%.

As for `COc1cccc(/C=C/c2nc3ccccn3c(=O)c2-c2ccc(OC(F)(F)F)cc2)c1OCC1CC1` [Example 18], the inhibition at 10 µM is 93.5% and the IC50 was under 500 nM. Also, the inhibition at 1 µM (1.0 μM test compound) was 79.5%.

Regarding `COc1cccc(/C=C/c2nc3ccccn3c(=O)c2-c2ccc(C#N)cc2)c1OCC1CC1` [Example 19], the inhibition at 10 µM was 98.7% and the IC50 is under 500 nM. In addition, the inhibition at 1 µM (1.0 μM test compound) was found to be 87.8%.

As to `COc1cccc(/C=C/c2nc3ccccn3c(=O)c2-c2ccccc2)c1OC1CCCC1` [Example 20, 2-{(E)-2-[2-(Cyclopentyloxy)-3-methoxyphenyl]vinyl}-3-phenyl-4H-pyrido[1,2-a]-pyrimidin-4-one], the inhibition at 10 µM was found to be 76.7% and the IC50 lay within 1000 to 2500 nM. The inhibition at 1 µM (1.0 μM test compound) amounted to 45.9%.

Regarding `COc1cccc(/C=C/c2nc3ccccn3c(=O)c2-c2cc(F)cc(F)c2)c1OC1CCCC1` [Example 21, 2-{(E)-2-[2-(Cyclopentyloxy-3-methoxy)phenyl]vinyl}-3-(3,5-difluoro) phenyl-4H-pyrido[1,2-a]pyrimidin-4-one], the inhibition at 10 µM worked out at 39.3%. Further, the inhibition at 1 µM (1.0 μM test compound) is 27.2%.

For the molecule `COc1cccc(/C=C/c2nc3ccccn3c(=O)c2-c2cccc(C(F)(F)F)c2)c1OC1CCCC1` [Example 22, 2-{(E)-2-[(2-Cyclopentyloxy-3-methoxy)phenyl]vinyl}-3-(3-trifluoromethyl)phenyl-4H-pyrido[1,2-a]pyrimidin-4-one], the inhibition at 10 µM came to 34.6%. The inhibition at 1 µM (1.0 μM test compound) amounted to 22.7%.

On to `COc1cccc(/C=C/c2nc3ccccn3c(=O)c2-c2ccc(C(F)(F)F)cc2)c1OC1CCCC1` [Example 23, 2-{(E)-2-[2-(Cyclopentyloxy)-3-methoxyphenyl]vinyl}-3-(4-trifluoromethyl)phenyl-4H-pyrido[1,2-a]pyrimidin-4-one], for which the inhibition at 10 µM worked out at 86.7% and the 50% inhibitory concentration (IC50) lay within 500 to 1000 nM. The inhibition at 1 µM (1.0 μM test compound) was 62.8%.

With `COc1cccc(/C=C/c2nc3ccccn3c(=O)c2-c2ccc(OC(F)(F)F)cc2)c1OC1CCCC1` [Example 24, 2-{(E)-2-[(2-Cyclopentyloxy-3-methoxy)phenyl]vinyl}-3-(4-trifluoromethoxy)phenyl-4H-pyrido[1,2-a]pyrimidin-4-one], the inhibition at 10 µM is 3.6% and the IC50 was 1000 to 2500 nM. For the setting “1.0 μM test compound”, the inhibition at 1 µM is 20.6%.
